Reference: patent US9364467B2 (Salix Pharmaceuticals, Ltd, priority 2012, dated 2016)
Converted amounts (≈) assume the structure as drawn. Where two headings read alike, the source gives them in different places.

Experiments:
[1] = system: S. epidermidis; experiment: In vitro activity (MIC) against S. epidermidis strains
[2] = system: S. xylosus; experiment: In vitro activity (MIC) against S. xylosus strains
[3] = system: Enterococcus spp. strains; experiment: In vitro activity (MIC) against Enterococcus spp. strains
[4] = biological target: T1, N-Formyl Peptide Receptor FPR1 (Homo sapiens, UniProt P21462); experiment: Radioligand binding assay, N-Formyl Peptide Receptor FPR1; conditions: CONC. 10 μM, hum
T1 sequence (P21462 1-350): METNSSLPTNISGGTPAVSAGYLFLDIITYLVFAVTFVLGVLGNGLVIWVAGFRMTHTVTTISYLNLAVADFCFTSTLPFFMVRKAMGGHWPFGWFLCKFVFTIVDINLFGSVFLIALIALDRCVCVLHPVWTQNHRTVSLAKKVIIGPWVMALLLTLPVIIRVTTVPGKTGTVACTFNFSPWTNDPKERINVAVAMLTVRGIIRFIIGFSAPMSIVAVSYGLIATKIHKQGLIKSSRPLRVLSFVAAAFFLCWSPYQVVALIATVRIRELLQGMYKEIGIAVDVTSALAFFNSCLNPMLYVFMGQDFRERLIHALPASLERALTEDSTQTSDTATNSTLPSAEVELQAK
Procedure: Methods employed in this study have been adapted from the scientific literature to maximize reliability and reproducibility. Reference standards were run as an integral part of each assay to ensure the validity of the results obtained. Assays were performed under conditions described in the accompanying “Methods” section below. The literature reference(s) for each assay are in the “Literature References” section.
Where presented, IC50 values were determined by a non-linear, least squares regression analysis using MathIQ™ (ID Business Solutions Ltd., UK). Where inhibition constants (KI) are presented, the KI values were calculated using the equation of Cheng and Prusoff (Cheng, Y., Prusoff, W. H., Biochem. Pharmacol. 22:3099-3108, 1973) using the observed IC50 of the tested compound, the concentration of radioligand employed in the assay, and the historical values for the KD of the ligand (obtained experimentally at Ricerca Biosciences, LLC). Where presented, the Hill coefficient (nH), defining the slope of the competitive binding curve, was calculated using MathIQ™. […] Where IC50, KI, and/or nH data are presented without Standard Error of the Mean (SEM), data are insufficient to be quantitative, and the values presented (KI, IC50, nH) should be interpreted with caution. […]

[5] = Enterococcus, read-out: Mode (MIC), Enterococcus spp. strains

COC1/C=C/O[C@@]2(C)Oc3c(C)c(O)c4c(O)c(c5c(c4c3C2=O)NC2C=C(C)C=CN52)NC(=O)/C(C)=C\C=C\C(C)C(O)C(C)C(O)C(C)C(O)C1C (some centres unmarked) [25-desacetyl rifaximin]
MIC ([1]; Staphylococcus epidermidis): 0.12 µg/mL (≈ 0.161 µM) | MIC ([1]; strain S. epidermidis 354): 0.12 µg/mL (≈ 0.161 µM) | MIC ([2]; Staphylococcus xylosus): 2 µg/mL (≈ 2.68 µM) | MIC ([2]; strain S. xylosus 346): 2 µg/mL (≈ 2.68 µM) | MIC ([3]; ATCC E. faecalis 29212): 16 µg/mL (≈ 21.5 µM) | MIC ([3]; E. faecalis 181): > 16 µg/mL | MIC ([3]; E. faecalis 186): 4 µg/mL (≈ 5.36 µM) | MIC ([3]; E. faecalis 187): 4 µg/mL (≈ 5.36 µM) | MIC ([3]; E. faecalis 193): 4 µg/mL (≈ 5.36 µM) | MIC ([3]; E. faecalis 194): > 16 µg/mL | MIC ([3]; E. faecalis 200): > 16 µg/mL | MIC ([3]; E. faecalis 204): 4 µg/mL (≈ 5.36 µM) | MIC ([3]; E. faecalis 205): > 16 µg/mL | MIC ([3]; E. faecalis 210): 4 µg/mL (≈ 5.36 µM) | MIC ([3]; E. faecalis 227): > 16 µg/mL | MIC ([3]; E. faecalis 228): 4 µg/mL (≈ 5.36 µM) | MIC ([3]; E. faecalis 232): 4 µg/mL (≈ 5.36 µM) | MIC ([3]; E. faecalis 235): > 16 µg/mL | MIC ([3]; E. faecalis 237): 4 µg/mL (≈ 5.36 µM) | MIC ([3]; E. faecalis 239): > 16 µg/mL | MIC ([3]; E. faecalis 242): > 16 µg/mL | MIC ([3]; E. faecalis 243): > 16 µg/mL | MIC ([3]; E. faecalis 245): > 16 µg/mL | MIC ([3]; E. faecalis 249): 4 µg/mL (≈ 5.36 µM) | MIC ([3]; E. faecalis 250): > 16 µg/mL | MIC ([3]; E. faecalis 251): > 16 µg/mL | MIC ([3]; E. faecalis 255): 4 µg/mL (≈ 5.36 µM) | MIC ([3]; E. faecium 8): 4 µg/mL (≈ 5.36 µM) | MIC ([3]; E. faecium 13): 4 µg/mL (≈ 5.36 µM) | MIC ([3]; E. faecium 174): > 16 µg/mL | MIC ([3]; E. faecium 185): > 16 µg/mL | MIC ([3]; E. faecium 188): > 16 µg/mL | MIC ([3]; E. faecium 189): 8 µg/mL (≈ 10.7 µM) | MIC ([3]; E. faecium 190): > 16 µg/mL | MIC ([3]; E. faecium 191): > 16 µg/mL | MIC ([3]; E. faecium 192): 8 µg/mL (≈ 10.7 µM) | MIC ([3]; E. faecium 198): > 16 µg/mL | MIC ([3]; E. faecium 199): > 16 µg/mL | MIC ([3]; E. faecium 201): > 16 µg/mL | MIC ([3]; E. faecium 203): 8 µg/mL (≈ 10.7 µM) | MIC ([3]; E. faecium 207): > 16 µg/mL | MIC ([3]; E. faecium 208): 4 µg/mL (≈ 5.36 µM) | MIC ([3]; E. faecium 209): > 16 µg/mL | MIC ([3]; E. faecium 212): > 16 µg/mL | MIC ([3]; E. faecium 215): > 16 µg/mL | MIC ([3]; E. faecium 217): 4 µg/mL (≈ 5.36 µM) | MIC ([3]; E. faecium 221): > 16 µg/mL | MIC ([3]; E. faecium 222): > 16 µg/mL | MIC ([3]; E. faecium 223): > 16 µg/mL | MIC ([3]; E. faecium 225): > 16 µg/mL | MIC ([3]; E. faecium 229): 8 µg/mL (≈ 10.7 µM) | MIC ([3]; E. faecium 230): 4 µg/mL (≈ 5.36 µM) | MIC ([3]; E. faecium 231): > 16 µg/mL | MIC ([3]; E. faecium 236): 4 µg/mL (≈ 5.36 µM) | MIC ([3]; E. faecium 238): > 16 µg/mL | MIC ([3]; E. faecium 240): > 16 µg/mL | MIC ([3]; E. faecium 248): > 16 µg/mL | MIC50 ([3]; Enterococcus): > 16 µg/mL | MIC90 ([3]; Enterococcus): > 16 µg/mL | MIC [3, 5]: > 16 µg/mL | inhibition at 10 µM [4]: > 50%

CO[C@H]1/C=C/O[C@@]2(C)Oc3c(C)c(O)c4c(O)c(c5c(nc6cc(C)ccn65)c4c3C2=O)NC(=O)/C(C)=C\C=C\[C@H](C)[C@H](O)[C@@H](C)[C@@H](O)[C@@H](C)[C@H](OC(C)=O)[C@@H]1C [Rifaximin, reference compound]
MIC ([1]; Staphylococcus epidermidis): 0.06 µg/mL (≈ 0.0763 µM) | MIC ([1]; strain S. epidermidis 354): 0.06 µg/mL (≈ 0.0763 µM) | MIC ([2]; Staphylococcus xylosus): 0.5 µg/mL (≈ 0.636 µM) | MIC ([2]; strain S. xylosus 346): 0.5 µg/mL (≈ 0.636 µM) | MIC ([3]; ATCC E. faecalis 29212): 4 µg/mL (≈ 5.09 µM) | MIC ([3]; E. faecalis 181): 4 µg/mL (≈ 5.09 µM) | MIC ([3]; E. faecalis 186): 4 µg/mL (≈ 5.09 µM) | MIC ([3]; E. faecalis 187): 4 µg/mL (≈ 5.09 µM) | MIC ([3]; E. faecalis 193): 4 µg/mL (≈ 5.09 µM) | MIC ([3]; E. faecalis 194): 4 µg/mL (≈ 5.09 µM) | MIC ([3]; E. faecalis 200): > 16 µg/mL | MIC ([3]; E. faecalis 204): 4 µg/mL (≈ 5.09 µM) | MIC ([3]; E. faecalis 205): 4 µg/mL (≈ 5.09 µM) | MIC ([3]; E. faecalis 210): 4 µg/mL (≈ 5.09 µM) | MIC ([3]; E. faecalis 227): > 16 µg/mL | MIC ([3]; E. faecalis 228): 4 µg/mL (≈ 5.09 µM) | MIC ([3]; E. faecalis 232): 4 µg/mL (≈ 5.09 µM) | MIC ([3]; E. faecalis 235): 16 µg/mL (≈ 20.4 µM) | MIC ([3]; E. faecalis 237): 4 µg/mL (≈ 5.09 µM) | MIC ([3]; E. faecalis 239): 8 µg/mL (≈ 10.2 µM) | MIC ([3]; E. faecalis 242): > 16 µg/mL | MIC ([3]; E. faecalis 243): 16 µg/mL (≈ 20.4 µM) | MIC ([3]; E. faecalis 245): > 16 µg/mL | MIC ([3]; E. faecalis 249): 4 µg/mL (≈ 5.09 µM) | MIC ([3]; E. faecalis 250): 4 µg/mL (≈ 5.09 µM) | MIC ([3]; E. faecalis 251): 8 µg/mL (≈ 10.2 µM) | MIC ([3]; E. faecalis 255): 4 µg/mL (≈ 5.09 µM) | MIC ([3]; E. faecium 8): 4 µg/mL (≈ 5.09 µM) | MIC ([3]; E. faecium 13): 4 µg/mL (≈ 5.09 µM) | MIC ([3]; E. faecium 174): 8 µg/mL (≈ 10.2 µM) | MIC ([3]; E. faecium 185): > 16 µg/mL | MIC ([3]; E. faecium 188): 8 µg/mL (≈ 10.2 µM) | MIC ([3]; E. faecium 189): 4 µg/mL (≈ 5.09 µM) | MIC ([3]; E. faecium 190): 16 µg/mL (≈ 20.4 µM) | MIC ([3]; E. faecium 191): > 16 µg/mL | MIC ([3]; E. faecium 192): 2 µg/mL (≈ 2.54 µM) | MIC ([3]; E. faecium 198): 16 µg/mL (≈ 20.4 µM) | MIC ([3]; E. faecium 199): 8 µg/mL (≈ 10.2 µM) | MIC ([3]; E. faecium 201): 16 µg/mL (≈ 20.4 µM) | MIC ([3]; E. faecium 203): 4 µg/mL (≈ 5.09 µM) | MIC ([3]; E. faecium 207): 4 µg/mL (≈ 5.09 µM) | MIC ([3]; E. faecium 208): 2 µg/mL (≈ 2.54 µM) | MIC ([3]; E. faecium 209): 16 µg/mL (≈ 20.4 µM) | MIC ([3]; E. faecium 212): > 16 µg/mL | MIC ([3]; E. faecium 215): > 16 µg/mL | MIC ([3]; E. faecium 217): 8 µg/mL (≈ 10.2 µM) | MIC ([3]; E. faecium 221): 8 µg/mL (≈ 10.2 µM) | MIC ([3]; E. faecium 222): > 16 µg/mL | MIC ([3]; E. faecium 223): > 16 µg/mL | MIC ([3]; E. faecium 225): 4 µg/mL (≈ 5.09 µM) | MIC ([3]; E. faecium 229): 2 µg/mL (≈ 2.54 µM) | MIC ([3]; E. faecium 230): 8 µg/mL (≈ 10.2 µM) | MIC ([3]; E. faecium 231): 16 µg/mL (≈ 20.4 µM) | MIC ([3]; E. faecium 236): 2 µg/mL (≈ 2.54 µM) | MIC ([3]; E. faecium 238): 16 µg/mL (≈ 20.4 µM) | MIC ([3]; E. faecium 240): > 16 µg/mL | MIC ([3]; E. faecium 248): > 16 µg/mL | MIC50 ([3]; Enterococcus): 8 µg/mL (≈ 10.2 µM) | MIC90 ([3]; Enterococcus): > 16 µg/mL | MIC [3, 5]: 4 µg/mL (≈ 5.09 µM) | inhibition at 10 µM [4]: < 50%
